What was measured:
[1] = system: ERG b-wave; assay: ERG b-wave after photobleaching; assay type: in vivo; settings: FIG. 10
[2] = system: insulin sensitivity; settings: mouse diabetes models; cited from earlier work
[3] = system: bisretinoids (A2E/isoA2E, A2-DHP-PE, atRAL di-PE); assay: Bisretinoid levels in eyes of treated mice (tissue extraction and HPLC); assay type: in vivo; settings: orally dosed for 3 weeks at 30 mg/kg
Description: (§1) The Abca4−/− mouse model manifests accelerated accumulation of lipofuscin in the RPE and is considered a preclinical efficacy model for a drug reducing lipofuscin accumulation. […] There was approximately a 70% reduction in the serum RBP4 level in treated animals (FIG. 11). Additionally, the inventors discovered that that the levels of A2E/isoA2E were reduced by approximately 50% in treated mice (FIG. 12).
Abca4/Abcr null mutant mice (albino) homozygous for Rpe65-Leu450 are bred genotyped and housed. Posterior eyecups of mice and RPE/choroids harvested from human donor eyes (National Disease Research Interchange, Philadelphia Pa.) are homogenized in phosphate buffered saline (PBS) using a glass tissue grinder and extracted in chloroform/methanol (2:1). […] An Alliance system (Waters, Corp, Milford, Mass.) equipped with 2695 Separation Module, 2996 Photodiode Array Detector, a 2475 Multi λ Fluorescence Detector and operating with Empower® software is used for HPLC analysis. […] HPLC quantification is carried out using the Empower® software to determine peak areas. […] Molar quantity per murine eye is determined using calibration curves constructed from known concentrations of purified external standards and by normalizing to the ratio of the HPLC injection volume (10 μL) versus total extract volume.

[4] = target: T1, serum RBP4 (Mus musculus, UniProt Q00724); assay: Serum RBP4 level in treated mice; assay type: in vivo; settings: orally dosed for 3 weeks at 30 mg/kg; wild-type and Abca4−/− mice; FIG. 11
T1 construct: from tissue; host or cells: mouse serum (in vivo, oral dosing)
Description: as §1

[5] = target: T2, RBP4-TTR interaction (Homo sapiens, UniProt P02753); assay: TR-FRET (HTRF) RBP4-TTR interaction assay, agonist mode; assay type: biochemical; settings: without retinol, FIG. 8
T2 construct: made in house; host or cells: E. coli
Description: TR-FRET (Time-Resolved Fluorescence Resonance Energy Transfer) is an assay format that can be used in characterization of compounds affecting protein-protein interactions (31-33). […] In the presence of retinol, RBP4-TTR interaction induces FRET that can be registered as increased ratio of […] fluorescence signals. Binding of a desired RBP4 antagonist displaces retinol and induces hindrance for RBP4-TTR interaction resulting in the decreased FRET signal (FIG. 7).
The inventors developed an assay using E. coli-expressed MBP-tagged RBP4 and commercially available TTR labeled directly with Eu3+ cryptate. In addition to MBP-RBP4 and Eu3+ (K)-TTR, a detector reagent anti-MBP-d2 was present in the mix. The assay was first optimized in the agonist mode; sensitivity and dynamic range of the assay was […] in respect to RBP4, TTR and detection reagent concentrations.

[6] = system: A2E production; settings: Abca4−/− mice, reference 11; cited from earlier work
[7] = target: serum RBP4 and retinol (Rattus norvegicus, UniProt P04916); settings: reference 15; cited from earlier work

effect on ERG b-wave after photobleaching [1] | reduction in the serum RBP4 level [4] [%] | induction of RBP4-TTR interaction [5] | SMILES | effect on insulin sensitivity [2] | levels of A2-DHP-PE and atRAL di-PE [3] | effect on A2E production [6] | effect on serum RBP4 and retinol [7]
does not reduce ERG b-wave | ~70 | did not induce RBP4-TTR interaction | O=C(O)c1ccccc1NC(=O)N1CCC(c2ccccc2C(F)(F)F)CC1 [Compound 1, 2(4-(2-(trifluoromethyl)phenyl)piperidine-1-carboxamido)benzoic acid] | did not improve insulin sensitivity | also reduced |  | 
 |  | did not induce RBP4-TTR interaction | CC1=C(/C=C/C(C)=C/C=C/C(C)=C/C(=O)Nc2ccc(O)cc2)C(C)(C)CCC1 [fenretinide, N-(4-hydroxy-phenyl)retinamide] |  |  | reduced A2E production | reduce serum RBP4 and retinol
